Measured values from US7893046B2, “Therapeutic or prophylactic agent for leukemia” (Toray Industries, Inc., priority 2006, dated 2011).

Legend:
Type in all cases: in vivo
[1] = tested on: leukemia cells (1629B cells) in bone marrow; assay: Proliferation of leukemia cells in bone marrow in mouse leukemia model (PCR of neomycin resistance gene)
Method: Neomycin resistance gene, a marker gene for 1629B cells, was used as an index of leukemia cells (1629B cells) in bone marrow and the gene level was determined, thereby detecting the number of leukemia cells in bone marrow.
For the amplification of neomycin resistance gene, primers were prepared and PCR (reaction condition: 32 cycles of 95° C. for 30 sec, 60° C. for 30 sec, and 72° C. for 1 min) was performed using DNA extracted from bone marrow cells as a template. After the reaction, the image of PCR bands was analyzed using Gel-Pro Analyzer (MediaCybernetics).

[2] = tested on: mouse leukemia cell line 1629B; assay: Mouse leukemia model, survival time and leukocytes in peripheral blood, dosing from Day 21 after transfer of 1629B cells; details: SCID mice, 100 mg/kg orally every day from Day 21 after transfer; for reduction ratio of increase in the number of leukocytes in peripheral blood: Day 35 after the transfer; for survival time prolonged to (Day after the transfer of leukemia cells): untreated mice died on Day 36
Method: This method was carried out in accordance with the literature “Cancer Cell., 4, 55-65 (2003)”.
Cells of mouse leukemia cell line 1629B were transferred into 8-week-old female SCID mice (CLEA Japan, Inc.) to develop leukemia. The compounds described in Examples 77, 78 and 84 were orally administered, respectively, at a dose of 100 mg/kg every day from Day 21 after the transfer of 1629B cells.

[3] = tested on: mouse leukemia cell line 1629B; assay: Mouse leukemia model, survival rate and leukocytes in peripheral blood, dosing from the time of 1629B cell transfer; details: SCID mice, 100 mg/kg orally every day from 1629B transfer
Method: This method was carried out in accordance with the literature “Cancer Cell., 4, 55-65 (2003)”. Cells of mouse leukemia cell line 1629B were transferred into 8- or 9-week-old female SCID mice (CLEA Japan, Inc.) to develop leukemia. The compounds described in Examples 80, 81 and 83 were orally administered, respectively, at a dose of 100 mg/kg every day from the time when 1629B cells were transferred.

[4] = leukemia mice of Example 89 (100 mg/kg orally from Day 21 after transfer)
[5] = leukemia mice of Example 88 (100 mg/kg orally from the time of transfer)
[6] = Day 43 after the transfer of leukemia cells

SMILES | reduction ratio of increase in the number of leukemia cells in bone marrow [1, 4] [%] | reduction ratio of increase in the number of leukocytes in peripheral blood [2] [%] | survival time prolonged to (Day after the transfer of leukemia cells) [2] [days] | reduction ratio of increase in the number of leukemia cells in bone marrow [1, 5] [%] | reduction ratio of increase in the number of leukocytes in peripheral blood ([3]; Day 43 after the transfer) [%] | survival rate [3, 6] [%] | reduction ratio of increase in the number of leukocytes in peripheral blood ([3]; Day 51 after the transfer) [%] | survival rate ([3]; Day 51 after the transfer of leukemia cells) [%]
COC1(c2ccc(/C=C/C[C@H](NC(=O)c3c(Cl)cccc3Cl)C(=O)O)cc2)CCOCC1 [Example 77, (S,E)-2-(2,6-Dichlorobenzamido)-5-[4-(4-methoxytetrahydropyran-4-yl)-phenyl]pent-4-enoic Acid] | 49.3 | 41.2 | 43 | – | – | – | – | –
COC1(c2ccc(/C=C/C[C@H](NC(=O)c3c(Cl)cccc3Cl)C(=O)[O-])cc2)CCOCC1.[Na+] [Example 78, (S,E)-2-(2,6-Dichlorobenzamido)-5-[4-(4-methoxytetrahydropyran-4-yl)-phenyl]pent-4-enoic Acid Sodium Salt] | 41.7 | 41.0 | 43 | – | – | – | – | –
CN(c1ccc(/C=C/C[C@H](NC(=O)c2c(Cl)cccc2Cl)C(=O)O)cc1)c1ncccn1 [Example 80, (S,E)-2-(2,6-Dichlorobenzamido)-5-[4-(methyl-pyrimidin-2-ylamino)phenyl]pent-4-enoic Acid] | – | – | – | 45.9 | 61.6 | 75.0 | – | –
CN(c1ccc(/C=C/C[C@H](NC(=O)c2c(Cl)cccc2Cl)C(=O)[O-])cc1)c1ncccn1.[Na+] [Example 81, (S,E)-2-(2,6-Dichlorobenzamido)-5-[4-(methyl-pyrimidin-2-ylamino)phenyl]pent-4-enoic Acid Sodium Salt] | – | – | – | 50.8 | – | – | 60.8 | 62.5
CC(C)N(c1ccc(/C=C/C[C@H](NC(=O)c2c(Cl)cccc2Cl)C(=O)O)cc1)c1ncccn1 [Example 83, (S,E)-2-(2,6-Dichlorobenzamido)-5-[4-(isopropyl-pyrimidin-2-ylamino)phenyl]pent-4-enoic Acid] | – | – | – | 46.1 | 53.1 | 75.0 | – | –
CC(C)N(c1ccc(/C=C/C[C@H](NC(=O)c2c(Cl)cccc2Cl)C(=O)[O-])cc1)c1ncccn1.[Na+] [Example 84, (S,E)-2-(2,6-Dichlorobenzamido)-5-[4-(isopropyl-pyrimidin-2-ylamino)phenyl]pent-4-enoic Acid Sodium Salt] | 45.6 | 49.8 | 43 | – | – | – | – | –
